{"source": "patent US6506576B2", "about": "(priority 2001, dated 2003)", "key": {"[1]": {"tested_on": "cerebellar granule cells", "experiment": "LDH release assay of granule cell death after toxicant exposure", "assay_type": "cell-based, rat", "procedure": "The lactate dehydrogenase (LDH) released into the media was determined using Cyto Tox96® non-radioactive cytotoxicity assay (Promega). In this calorimetric assay, LDH converts lactate and nicotinamide adenine dinucleotide (NAD^+) to pyruvate and NADH, respectively. This initial reaction is coupled to a second reaction where diaphorase converts iodo-nitro-tetrazolium salt and NADH to a red colored formazan compound and NAD^+ respectively. Briefly, 50 μl of assay buffer was added to each 100 μl sample of media removed from each well prior to MTS analysis. Samples were then incubated in the dark for 30 minutes at room temperature, and then 50 μl of a stop solution (1M acetic acid) was added into each well and the absorbance at 490 nm was measured as above. Positive control samples of bovine heart LDH (800 units/ml; lot 11455502, Promega) were serially diluted into a final volume of 200 μl and assayed as described above.\n(§1) Granule cell cultures were seeded at an initial density of 1×10^5 cells per well and maintained in GCSF culture media for 7 day in vitro prior to toxicant exposure. On the day of treatment, L-Glutamate, tert-butyl-hydroperoxide (TBHP), hydrogen peroxide (H2O2), ionomycin (Sigma), and MK-801 (Calbiochem, San Diego) were prepared at required concentration in the appropriate media. Cultures were exposed to toxicants for 24 hours prior to viability analysis. Cultures receiving MK-801 were pretreated for 10 minutes prior to addition of L-glutamate, and negative control cultures were treated with fresh media. For dose-dependence of oxidative-induced injury H2O2 and TBHP stock solutions were serially diluted in media to 100× concentrations immediately before each experiment. The concentration of the H2O2 stock solution was determined spectrophotometrically before each experiment based on its absorbance using the equation: C=(Ab240/ε)×DF; where C is the concentration of H2O2 (mM), Ab240 is absorbance at 240 nm, ε is the extinction coefficient (0.0394 mM^−1 cm^−1), DF is the dilution factor, and the path-length of the spectrophotometer is 1 cm. Comparative analysis of granule cell viability/lyses in GCSF and NB-B27 was assessed using the MTS reduction and LDH release assays as described above."}, "[2]": {"tested_on": "cerebellar granule cells", "details": "for concentration at which maximal effects on granule cell viability/lysis were observed / concentration at which significant effects on granule cell viability/lysis were initially detected: MTS reduction and LDH release, independent of culture condition (GCSF or NB-B27)", "procedure": "Viability of the cerebellar granule cell culture was assessed using CellTiter 96® AQueous One Solution Cell Proliferation reagent (Promega, G3580). This colorimetric assay employs, 3-(4,5-dimethylthiazol-2-yl)-5-(3-carboxymethoxyphenyl)-2-(4-sulfophenyl)-2H-tetrazolium (MTS) and the electron coupling reagent, phenazine ethosulfate (PES). […] Briefly, prior to each MTS assay, 100 μl of media was removed from each well, transferred to new 96-well plate for subsequent LDH release analysis. To each cell containing well, 20 μl of MTS tetrazolium reagent was added to the remaining media (100 μl). Culture plates were incubated in the humidified incubator at 37° C. and in 5% CO2 for 2 hours. Following incubation the quantity of formazan product present was determined by measuring the absorbance at 490 nm using a VERSAmax® microplate reader and SOFTmax PRO software (Molecular Devices).\nas §1"}, "[3]": {"tested_on": "non-neuronal cells in cerebellar cultures", "experiment": "Inhibition of non-neuronal cell proliferation in primary cerebellar cultures (visual inspection, staining)", "assay_type": "cell-based, rat", "procedure": "Based on the calculated cell numbers, cerebellar cells were serially diluted in an appropriate volume of culture media and seeded into flat-bottom 96-well tissue culture plates pre-coated with poly-L-lysine (Becton Dickinson, Bedford, Mass.). The numbers of cerebellar cells seeded ranged from 6,250 to 400,000 cells per well (0.32 cm^2) in a final volume of 200 μl. Cultures were maintained in a humidified incubator in 5% CO2 at 37° C.\nAfter 7-30 day in vitro, cultures were washed 3 times with phosphate buffered saline (PBS) and fixed for 20-30 minutes with 4% paraformaldehyde in 0.1M sodium phosphate buffer (pH 7.4; PB). Following fixation, cells were washed 3 times with PBS, and either stained with 1% methylene blue (Sigma) in deionized water for 5 minutes and destained with deionized water or permeablized for immunostaining with 0.2% Triton X-100 in PBS. Permeablized cells were washed 3 times with PBS, incubated for 1 hour in 5% normal horse serum in PB and then incubated overnight at 4° C. with a glial fibrillary acidic protein (GFAP) antiserum (1:5000 dilution; Dako, Carpintea, Calif.). Following incubation with primary antiserum, cells were extensively washed with PBS plus 0.1% Tween-20 and immunoreactivity was visualized with NiCl/3,3′-diaminobenzidine (DAB) using the avidin-biotin-complex (ABC) method (Vector Elite-universal; Vector Laboratories, Burlingame, Calif.). […]"}, "[4]": {"details": "400 μM H2O2, 24 hours, 7 DIV cultures in GCSF"}, "[5]": {"details": "400 μM H2O2, 24 hours, 7 DIV cultures in NB-B27"}, "[6]": {"details": "125 μM TBHP, 24 hours, 7 DIV cultures in GCSF"}, "[7]": {"details": "125 μM TBHP, 24 hours, 7 DIV cultures in NB-B27"}}, "note": "Read-outs that look alike come from different tables or passages of the source.", "data": [{"compound": "OO", "note": "[H2O2, hydrogen peroxide]", "values": [{"measurement": "LDH-release", "setting": "[1]; [4]", "value": "136.9±2.8 % of control"}, {"measurement": "LDH-release", "setting": "[1]; [5]", "value": "125±5.0 % of control"}, {"measurement": "neuronal cell death (MTS reduction)", "setting": "[2]; 100 μM H2O2, 24 hours, GCSF, single experiment n=8", "value": "Statistically significant levels of neuronal cell death"}, {"measurement": "MTS-reduction", "setting": "[2]; [4]", "value": "41.5±1.0 % of control"}, {"measurement": "MTS-reduction", "setting": "[2]; [5]", "value": "47±1.2 % of control"}, {"measurement": "concentration at which maximal effects on granule cell viability/lysis were observed", "setting": "[2]; 24 hours", "value": 400, "unit": "µM"}, {"measurement": "concentration at which significant effects on granule cell viability/lysis were initially detected", "setting": "[2]; 24 hours", "value": 200, "unit": "µM"}]}, {"compound": "N[C@@H](CCC(=O)O)C(=O)O", "note": "[L-glutamate, L-Glutamate]", "values": [{"measurement": "granule cell viability (MTS reduction)", "setting": "[2]; 500 μM L-glutamate, 24 hours, GCSF, representative single experiment", "value": "56.8±2 % of control cultures"}]}, {"compound": "C[C@]12N[C@H](Cc3ccccc31)c1ccccc12", "note": "[MK-801]", "values": [{"measurement": "viability of cultures pretreated with antagonist prior to L-glutamate exposure (MTS reduction)", "setting": "[2]; 10 μM MK-801 pretreatment 10 minutes, then 500 μM L-glutamate 24 hours, GCSF", "value": "not significantly different from the mock-treated control cultures"}]}, {"compound": "CC(C)(C)OO", "note": "[TBHP, tert-butyl-hydroperoxide]", "values": [{"measurement": "LDH-release", "setting": "[1]; [6]", "value": "125.4±1.4 % of control"}, {"measurement": "LDH-release", "setting": "[1]; [7]", "value": "122.7±5.6 % of control"}, {"measurement": "MTS-reduction", "setting": "[2]; [6]", "value": "37.9±0.8 % of control"}, {"measurement": "MTS-reduction", "setting": "[2]; [7]", "value": "43.7±1.9 % of control"}, {"measurement": "concentration at which maximal effects on granule cell viability/lysis were observed", "setting": "[2]; 24 hours", "value": 125, "unit": "µM"}, {"measurement": "concentration at which significant effects on granule cell viability/lysis were initially detected", "setting": "[2]; 24 hours", "value": 62.5, "unit": "µM"}]}, {"compound": "C[C@H](CCC(=O)O)C[C@H](C)C[C@H](C)C(=O)/C=C(\\O)[C@H](C)C[C@H](C)C/C=C/[C@@H](C)[C@@H](O)[C@@H](C)[C@@H](O)C[C@@H]1CC[C@@](C)([C@H]2CC[C@@](C)([C@@H](C)O)O2)O1", "note": "[ionomycin]", "values": [{"measurement": "average maximal decrease in viability (MTS reduction)", "setting": "[2]; ionomycin treatment (10 nM per FIG. 6 legend), GCSF", "value": "56±5 % of control"}]}, {"compound": "cytosine β-D-arabinofuranoside [AraC]", "values": [{"measurement": "non-neuronal cell types in cultures", "setting": "[3]; 10 μM AraC added after 24 hour in vitro, NB-B27 or GCSF", "value": "less than 5%"}, {"measurement": "cells with morphological phenotype of small cerebellar granule cell neurons", "setting": "[3]; 10 μM AraC added after 24 hours, 96-well plates, visual inspection", "value": "> 90", "unit": "%"}]}]}
